{"source": "patent US12194024B2", "about": "“Pharmaceutical composition of MDM2 inhibitor and use thereof for preventing and/or treating disease” (ASCENTAGE PHARMA (SUZHOU) CO., LTD., priority 2019, dated 2025)", "key": {"[1]": {"test_system": "human OCI-AML-3 AML xenograft tumor", "assay": "Subcutaneous OCI-AML-3 AML mouse xenograft tumor model", "type": "in vivo, NOD SCID mice", "details": "Compound 2 50 mg/kg orally q2d, Azacitidine 2 mg/kg i.v., Decitabine 1 mg/kg i.v.", "description": "For subcutaneous model, OCI-AML-3 cells (1×10^6) are injected subcutaneously into the right side of the abdomen of 6- to 8-week-old mice. About 10 days after the cell inoculation, the mice are randomly divided into groups based on the primary tumor size achieving about 100-150 mm^3 of average tumor volume.\n(§1) The tumor diameter is measured twice using a vernier caliper each week. The computational formula of the tumor volume (TV) is: TV=a×b^2/2. In the computational formula, a and b represent the length and width of the tumor measurement respectively. The computational formula of the relative tumor volume (RTV) is: RTV=VtN1. In the computational formula, V1 is the tumor volume when being grouped and administered, and Vt is the tumor volume when being measured at a certain day after the administration.\nThe tumor remission rate (%) is derived by dividing the number of SD (Stable Disease), PR (Partial response) and CR (Complete response) appearing in the tumor bearing mice after treatment by the total number of mice in the group×100%.\nThe synergistic analysis uses the following formula (reference can be made to Gould S E et al., Translational value of mouse models in oncology drug development, Nature medicine, 2015 21, 431-439): synergistic factor=((A/C)×(B/C))/(AB/C); A=RTV value of the A drug alone group; B=RTV value of the B drug alone group; C=RTV value of the vehicle control group, AB=RTV value of the AB combined group (Clarke R., Issues in experimental design and endpoint analysis in the study of experimental cytotoxic agents in vivo in breast cancer and other models[J], Breast Cancer Research & Treatment, 1997, 46 (2-3):255-278).\nFor subcutaneous model, OCI-AML-3 cells (1×10^6) are injected subcutaneously into the right side of the abdomen of 6- to 8-week-old mice. About 10 days after the cell inoculation, the mice are randomly divided into groups based on the primary tumor size achieving about 100-150 mm^3 of average tumor volume. Compound 2 is administered alone or in combination (50 mg/kg, is taken orally, every other day for 15 days) and Aza (2 mg/kg, intravenous injection each day for 7 days) or Dec (1 mg/kg, intravenous injection each day for 7 days). The tumor volume is measured twice using a vernier caliper each week and is represented by following formula in mm^3: V=0.5a×b^2; in the formula, a and b are the long diameter and short diameter of the tumor respectively. […] RTV=VtN1; wherein V1 and Vt are the average tumor volume on the first day (day 1) in the treatment, and the average tumor volume of a certain time point (day t) respectively.\nAzacitidine is administered following 2 mg/kg, caudal vein injection, qd×7d, drug withdrawal 7 days, then qd×2 day regimens for seven days (corresponding to the number 68 regimen in table 7)."}, "SKM-1": {"test_system": "SKM-1", "assay": "CellTiter-Glo (CTG) cell proliferation experiment", "type": "cell-based", "details": "Homo sapiens, TP53 mut, 72 hours, read-out: IC50 values, nM (Mean ± SD, n = 2 or 3)"}, "[2]": {"test_system": "human A375 cutaneous melanoma xenograft tumor", "assay": "Subcutaneous A375 cutaneous melanoma xenograft model", "type": "in vivo, BALB/c Nude mice", "source_text": "The subcutaneous xenograft tumor model of human tumor immuno-deficient mice is established by the cell inoculation method (reference can be made to Gould S E et al., Translational value of mouse models in oncology drug development, Nature medicine, 2015 21, 431-439, and Souers A J et al., ABT-199, a potent and selective BCL-2 inhibitor, achieves antitumor activity while sparing platelets, Nature medicine, 2012 19.202-208): tumor cells at logarithmic phase are collected, then are resuspended in 1×PBS after being counted, the concentration of the cell suspension is adjusted to 2.5-5×10^7/mL. Tumor cells are subcutaneously inoculated to right-side back of the immuno-deficient mice using a 1 mL syringe (4th needle) at 5-10×10^6/0.2 mL/mouse (experimental animals are purchased from Beijing Vital River Laboratory Animal Technology Co., Ltd. SCXK (Beijing) 2016-0006). All the experimental operations of animals strictly abide by the usage and management standard of experimental animals of GenePharma Co., Ltd. and Suzhou Yasheng Pharmaceutical Co., Ltd. The calculations of related parameters make reference to “Technical guidelines for non-clinical research of cytotoxic anti-tumor drugs” of China CFDA.\nas §1\nThe evaluation index of the anti-tumor activity is the relative tumor proliferation rate T/C (%), and the computational formulae respectively are: the relative tumor proliferation rate T/C (%)=(TRTV/CRTV)×100%, TRTV is the RTV of the treatment groups, and CRTV is the RTV of the vehicle control groups. The tumor remission rate (%) is derived by dividing the number of SD (Stable Disease), PR (Partial response) and CR (Complete response) appearing in the tumor bearing mice after treatment by the total number of mice in the group×100%. […]"}}}
{"smiles": "CCN1[C@@H](C(=O)NC23CCC(C(=O)O)(CC2)CC3)[C@H](c2cccc(Cl)c2F)[C@]2(C(=O)Nc3cc(Cl)ccc32)C12CCCCC2", "note": "[Compound 2]", "values": [{"measurement": "T/C value (%) (d15)", "setting": "[1]", "value": 84.8, "unit": "%"}, {"measurement": "Relative tumor volume (RTV, Mean ± SEM)", "setting": "[1]; d15, vehicle 16.5 ± 4.1", "value": "14.0 ± 2.7"}, {"measurement": "IC50", "setting": "SKM-1", "value": "8950 ± 570", "unit": "nM"}, {"measurement": "T/C (%) @ D18", "setting": "[2]; Compound 2 50 mg/kg PO QD × 7D, Trametinib 1 mg/kg, Dabrafenib 30 mg/kg PO QD × 21D", "value": 58.25, "unit": "%"}, {"measurement": "RTV @ D18 (Mean ± SEM)", "setting": "[2]; Compound 2 50 mg/kg PO QD × 7D, Trametinib 1 mg/kg, Dabrafenib 30 mg/kg PO QD × 21D, vehicle 17.36 ± 1.33", "value": "10.11 ± 1.83"}, {"measurement": "DCR (%)", "setting": "[2]; disease control rate, CR, PR or SD by mRECIST", "value": 0, "unit": "%"}, {"measurement": "ORR (%)", "setting": "[2]; objective response rate, CR or PR by mRECIST", "value": 0, "unit": "%"}]}
